Reference: US20130197023A1, “NEUROPROTECTION BY PHARMACOLOGICAL CHAPERONING OF NICOTINIC ACETYLCHOLINE RECEPTORS” (priority 2012, published 2013)
Read-outs that look alike come from different tables or passages of the source.

Tests used:
α4β2 nAChRs = α4β2 nAChRs (Mus musculus, UniProt O70174+Q9ERK7)
Source text: For NFRET experiments, Neuro-2a cells were transfected with GaIT-eCFP+α4-mcherry+β2-eGFP subunits. GaIT-eCFP was used to label the TG, TGN (Schaub et al., 2006). Cells transfected with α4-mcherryβ2wt or α4wtβ2-eGFP nAChRs were included in every imaging session to control for pixel saturation and spectral bleedthrough. Live cells were imaged using an Eclipse C1si laser scanning confocal microscope. During image acquisition, cells were focused to a plane where the GaIT-eCFP fluorescence was best visualized. Images with emission spectra for eCFP, eGFP and mcherry were acquired in 5-nm bins between 470 and 620 nm. 439, 488 and 561 nm laser lines were used to excite eCFP, eGFP and mcherry respectively. Images were linearly unmixed using reference spectra for eCFP, eGFP and mcherry with emission maxima at 477, 508 and 608 nm. Reference spectra were acquired from Neuro-2a cells transfected with either GaIT-eCFP or α4-mcherryβ2wt or α4wtβ2-eGFP during the same imaging session. Linear unmixing was used to separate all three emission spectra from each image. Linearly unmixed images were compiled into donor spectral bleed-through stacks, acceptor spectral bleed-through stacks, and sample image stacks.
The PixFRET ImageJ plugin was used to determine the eGFP and mcherry spectral bleedthrough (BT) values and to calculate the net FRET (nF) (equation 1) and normalized FRET (NFRET) at each pixel. With the background and bleed-through corrections set, the nF for each pixel as described by equation 1 was calculated and the data were presented as 32-bit images. nF was divided by the square root of eGFP and mcherry intensities (equation 2) to obtain the normalized FRET (NFRET) value at each pixel. FRET normalization was used to control for large differences in fluorophore expression within subcellular regions and between different cells in a dish.
where, nF=net FRET, IFRET=mcherry sensitized emission with 488 nm excitation, IeGFP=eGFP emission with 488 nm excitation, BTeGFP=spectral bleedthrough of eGFP emission into mcherry emission spectra at 488 nm excitation, Imcherry=mcherry emission with 561 nm excitation and BTmcherry=spectral bleedthrough of mcherry emission into eGFP emission spectra at 561 nm excitation. IFRET, IeGFP and Imcherry were obtained from Neuro-2a cells transfected with GaIT-eCFP+α4-mcherry+β2-eGFP. BTeGFP and BTmcherry values were obtained from Neuro-2a cells transfected with α4-mcherry+β2wt and α4wt+β2-eGFP respectively.
Histograms of NFRET (x-axis) versus number of pixels (y-axis) of each imaged cell were compiled for either the whole cell sections or the TG, TGN ROIs, demarcated by intensity-based thresholding of GaIT-eCFP fluorescence. Frequency histograms obtained in this way (omitting values of zero) were merged for all cells in each experimental group and fitted to two Gaussian components such that a minimum goodness of fit (R^2) value of 0.995 was achieved. Ratios of area under the curve for the two Gaussian components with high and low mean NFRET values were used to determine changes in receptor stoichiometry between experimental groups: NFRET histograms were fitted to Gaussian components, yielding the total pixel area under either the A1 (low mean NFRET fit) or A2 (high mean NFRET fit) components. For quantitative measurements of stoichiometry, we compared the fractional area (FA) for the low NFRET component in each case as given by the following equation:
where, FA=fractional area, A1=area under the curve for low mean NFRET Gaussian component and A2=area under the curve for high mean NFRET Gaussian component.
Due to variability resulting from cell passage number, we imaged untreated control cells on the same day to compare and evaluate the effects of drug exposure on stoichiometry.

ATF6 = details: 24 hr, 0.1 μM nicotine
Protocol: (§1) Cortical neurons were extracted from day 17 mouse embryos; 150,000 cells were plated in each 35 mm poly-l-lysine-coated glass bottom culture dish in a solution containing Neurobasal, B27, and Glutamax supplemented with 3% equine serum. On day four of culture, neurons were treated with 1 μM cytosine arabinoside. Neurons were maintained via 50% exchange with feeding medium (Neurobasal, B27, and Glutamax) twice per wk. Neurons were transfected five days after plating as follows: 1 μg of each nAChR subunit plasmid was incubated with 20 μg Nupherin Neuron in 400 μl of Neurobasal medium. 10 μL of Lipofectamine 2000 was separately incubated for 15 min in 400 μl Neurobasal medium. The two solutions were combined and incubated for 45 min at room temperature, then applied to cells. After 1 hr incubation, the total medium was replaced with fresh 2 ml medium with or without 0.1 μM nicotine. For immunostaining, cultures were fixed the following day with 4% paraformaldehyde (10 min), permeabilized in 0.02% Tris-buffered saline (TBS)-TritonX (15 min) and blocked in 10% goat serum (30 min). Following 2×TBS washes, the appropriate primary antibody in 1% goat serum was applied overnight at 4° C. The following day cultures were rinsed in TBS, and incubated in 1% goat serum containing secondary antibody (1:5000) (30 min). Cells were rinsed in TBS and imaged immediately.
(§2) Immunostaining employed ATF6 mouse monoclonal (Abcam, 11909, 1:50 dilution), rabbit polyclonal peIF2α and total eIF2α (Cell Signaling Technology, 9721 and 5324, both 1:200 dilution). Alexa 488-labeled secondary antibodies were used (Invitrogen, donkey anti-mouse and goat anti-rabbit).

eIF2α = details: 24 h, 0.1 μM nicotine; for whole cell and cytoplasmic peIF2α fluorescence: p=0.06
Protocol: as §1, §2

α4-eGFPβ2-wt nAChRs = target: T1, α4-eGFPβ2-wt nAChRs (Mus musculus, UniProt O70174+Q9ERK7); assay type: cell-based
T1 construct: expressed in transfected cells; host or cells: mouse Neuro-2a cells
Source text: Details of the quantification method have been previously described (Srinivasan et al., 2011). Briefly, PM fluorescence was extracted as follows: Raw TIRF images were converted to background-subtracted images and the ER fluorescence was thresholded and selected. ER fluorescence was then subtracted from the original image to generate images with PM fluorescence signals. These procedures yielded a dataset of several hundred thousand pixel intensities over the 15-50 cells in each experimental group. Fluorescence intensities are simply the sum of pixel values for either the PM or the ER or the ER+PM (using whole TIRF footprint images). Mean PM fluorescence intensity was derived by dividing the total fluorescence intensity for each experimental group by the number of imaged cells and normalized to intensity of untreated cells. Ratios of fluorescence intensities for the whole TIRF footprint (ER+PM) to ER were used to determine the post-Golgi fraction of receptors. For PM integrated density measurements, rather than plotting SEMs (which would be indistinguishably small on the plots), we have used “error bars” to depict 99% confidence intervals based on a two-tailed t-test. Measurements from drug treated cells were normalized to values of untreated cells imaged on the same day. DHβE TIRF experiments were performed on a different day from nicotine and cytisine experiments.

[1] = octanol and water, PubChem Compound; cited from earlier work

T1 sequence (O70174 31-629): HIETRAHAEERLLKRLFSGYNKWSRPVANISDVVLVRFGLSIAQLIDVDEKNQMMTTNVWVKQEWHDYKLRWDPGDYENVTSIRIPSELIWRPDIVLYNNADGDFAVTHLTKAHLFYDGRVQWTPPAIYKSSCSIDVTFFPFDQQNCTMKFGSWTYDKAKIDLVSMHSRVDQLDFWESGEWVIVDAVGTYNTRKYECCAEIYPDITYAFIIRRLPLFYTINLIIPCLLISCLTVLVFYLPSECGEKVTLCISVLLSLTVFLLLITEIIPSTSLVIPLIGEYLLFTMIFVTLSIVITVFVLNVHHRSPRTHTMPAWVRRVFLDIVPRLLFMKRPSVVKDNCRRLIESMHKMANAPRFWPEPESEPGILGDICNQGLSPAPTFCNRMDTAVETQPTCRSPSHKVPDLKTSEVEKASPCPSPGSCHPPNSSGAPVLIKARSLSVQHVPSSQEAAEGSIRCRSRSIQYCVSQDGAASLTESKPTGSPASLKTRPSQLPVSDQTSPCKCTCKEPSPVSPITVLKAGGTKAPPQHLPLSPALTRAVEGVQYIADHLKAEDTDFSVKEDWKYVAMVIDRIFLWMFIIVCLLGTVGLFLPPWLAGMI
T1 sequence (Q9ERK7 26-501): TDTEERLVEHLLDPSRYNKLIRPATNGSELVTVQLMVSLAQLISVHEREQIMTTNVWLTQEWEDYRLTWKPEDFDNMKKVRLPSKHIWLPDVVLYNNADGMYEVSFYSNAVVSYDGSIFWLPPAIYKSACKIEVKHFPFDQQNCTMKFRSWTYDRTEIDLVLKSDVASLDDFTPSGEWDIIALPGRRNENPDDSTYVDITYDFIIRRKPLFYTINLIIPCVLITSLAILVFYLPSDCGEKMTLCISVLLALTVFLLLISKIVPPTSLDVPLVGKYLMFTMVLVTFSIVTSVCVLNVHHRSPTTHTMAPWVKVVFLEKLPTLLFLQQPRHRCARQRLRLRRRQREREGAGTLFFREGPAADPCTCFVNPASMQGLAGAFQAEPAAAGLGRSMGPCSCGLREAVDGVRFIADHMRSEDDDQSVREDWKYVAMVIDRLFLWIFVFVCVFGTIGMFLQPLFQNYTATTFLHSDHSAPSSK
Chain of α4β2 nAChRs (O70174 31-629): as the sequence (O70174 31-629) above
Chain of α4β2 nAChRs (Q9ERK7 26-501): as the sequence (Q9ERK7 26-501) above

With CN1CCCC1c1cccnc1 (stereo not drawn) [Nicotine, nicotine] the “TG+TGN FA (fractional area of low NFRET component)” value (α4β2 nAChRs) was 0.80, the “whole cell FA (fractional area of low NFRET component)” value (α4β2 nAChRs) was 0.74 and the “reduction in the nucleus to whole cell ATF6 fluorescence ratio” value (ATF6; compared to untreated cells) was 50%. For the same molecule, the “α4-mcherryβ2wt-expressing cells showing nuclear ATF6 localization” value (ATF6; 56% in the absence of nicotine) was 14%, the “total eIF2α fluorescence within the cytoplasm or nucleus” value (eIF2α) was “did not affect” and the “total eIF2α fluorescence within the cytoplasm or nucleus” value (eIF2α; listed as nicotine) was “without affecting”. For the same molecule, the “whole cell and cytoplasmic peIF2α fluorescence” value (eIF2α) was “near significant reduction”, the “whole cell and cytoplasmic peIF2α fluorescence” value (eIF2α; listed as nicotine) was “trend towards reduction” and the “effect on the footprint/ER ratio (in words)” value (α4-eGFPβ2-wt nAChRs) was “reduction”. The “increase in PM-localized nAChRs” value (α4-eGFPβ2-wt nAChRs) was 2 fold, the “reduction of the footprint/ER ratio” value (α4-eGFPβ2-wt nAChRs) was about 2 fold and the logP [1] was 1.1.
